Measurements: patent US11246893B2, “Bacteriocin production, compositions and methods of use” (ISOThrive Inc., priority 2016, dated 2022)

How the values were obtained:
[1] = test system: Weissella viridescens NRRL B-1951; assay: tube assay, W. viridescens growth with nisin A or Z (absorbance); assay type: cell-based; conditions: 15 Hr
Procedure: 100 g De-Man, Rogosa and Sharpe (MRS) media was prepared in a 500 mL Erlenmeyer to contain 5.5% solids in deionized water (18.2 MΩ, Hydro Service and Supplies. Gaithersburg, Md.). The media was autoclaved (121° C. 15 min), cooled, and inoculated with 1 mL (0.5 mL culture+0.5 mL glycerol, 40%; frozen at −78° C.) of Weissella viridescens NRRL B-1951 (test strain). The culture was incubated at 31° C. overnight (15 Hr).
The next day, stock solutions of either nisin A or Z were prepared in deionized water to contain 31.3 and 33.7 μg/g of each peptide.
100 g MRS media was prepared to contain 5.5% solids. Two sets (one set each for nisin A and nisin Z) of eight Hach-type tubes (Kimble Chase 45066-16100) were prepared. Within each set, in order was added 5.00, 4.95, 4.90, 4.75, 4.50, 4.00, 3.50 and 3.00 g MRS media. The tubes were sealed and autoclaved.
To each tube was added, of the appropriate nisin stock, 0.00, 0.05, 0.10, 0.25, 0.50, 1.00, 1.50, and 2.00 g. Each tube was inoculated with 0.25 g of late-log W. viridescens NRRL B-1951 culture. The tubes were sealed and the absorbance at 600 nm was quickly measured (Hach DR900). The tubes were segregated by set and incubated at 31° C. overnight (15 Hr).
Each tube was thoroughly mixed to suspend settled cells and the absorbance was measured again at 600 nm. The final absorbance values for each sample were corrected for their respective background (taken just after inoculation, scattered light from added cells). The corrected absorption values were a measure of W. viridescens growth.
As indicated above, the absorbance of the culture was measured again at 600 nm as a measure of W. viridescens growth, and the absorbance values for each sample were corrected for their respective background. These corrected absorption values plotted against nisin concentration and minimum inhibiting concentration approximated via regression.
The results were fit via four parameter logistic regression (4PLR), combined into a continuous function with a second assay set (0.65-9.99 μg/g), and are shown in FIG. 11A.

[2] = test system: Weissella viridescens NRRL B-1951; assay: HPLC of tube supernatants: glucose consumption and organic acid production; assay type: cell-based; conditions: for acetic acid in fermentation media: MRS media originally contained 7% acetate
Procedure: Each tube was sampled (1.5 mL conical polypropylene centrifuge tubes) and centrifuged at 10 kRPM for 10 minutes to remove and suspended cells. The resulting supernatants were filtered (0.2 μm nylon), diluted to 0.5% solids, and analyzed by high pressure liquid chromatography (HPLC, Agilent 1100, refractive index detector and BioRad Ainex HPX-87H column) for consumption of glucose and production of organic acids.
Note that the MRS media originally contained 7% acetate; therefore 7% should be subtracted from the values for acetate in Table 8 to ascertain the amount of acetate generated during the assay.

head/neck tumors = conditions: mouse, in vivo; cited from earlier work

MSTKDFNLDLVSVSKKDSGASPRITSISLCTPGCKTGALMGCNMKTATCNCSIHVSN [nisin Z]
91516 ABS 610f ([1]; tube Z2, nisin Z 0.34 μg/g): 1.618
Corrected ABS 610rs ([1]; tube Z2, nisin Z 0.34 μg/g): 1.146
91516 ABS 610f ([1]; tube Z3, nisin Z 0.77 μg/g): 1.526
Corrected ABS 610rs ([1]; tube Z3, nisin Z 0.77 μg/g): 1.062
91516 ABS 610f ([1]; tube Z4, nisin Z 1.58 μg/g): 1.296
Corrected ABS 610rs ([1]; tube Z4, nisin Z 1.58 μg/g): 0.841
91516 ABS 610f ([1]; tube Z5, nisin Z 3.19 μg/g): 0.801
Corrected ABS 610rs ([1]; tube Z5, nisin Z 3.19 μg/g): 0.359
91516 ABS 610f ([1]; tube Z6, nisin Z 6.31 μg/g): 0.426
Corrected ABS 610rs ([1]; tube Z6, nisin Z 6.31 μg/g): 0.003
91516 ABS 610f ([1]; tube Z7, nisin Z 9.54 μg/g): 0.384
Corrected ABS 610rs ([1]; tube Z7, nisin Z 9.54 μg/g): 0.001
91516 ABS 610f ([1]; tube Z8, nisin Z 12.61 μg/g): 0.386
Corrected ABS 610rs ([1]; tube Z8, nisin Z 12.61 μg/g): 0.001
Maltotriose in fermentation media ([2]; tube Z2, nisin Z 0.34 μg/g): 0.282 %/brix
ethanol in fermentation media ([2]; tube Z2, nisin Z 0.34 μg/g): 0.057 %/brix
formic acid in fermentation media ([2]; tube Z2, nisin Z 0.34 μg/g): 0.303 %/brix
fructose in fermentation media ([2]; tube Z2, nisin Z 0.34 μg/g): 0.000 %/brix
glucose in fermentation media ([2]; tube Z2, nisin Z 0.34 μg/g): 22.988 %/brix
glycerol in fermentation media ([2]; tube Z2, nisin Z 0.34 μg/g): 0.343 %/brix
lactic acid in fermentation media ([2]; tube Z2, nisin Z 0.34 μg/g): 6.742 %/brix
maltose in fermentation media ([2]; tube Z2, nisin Z 0.34 μg/g): 0.722 %/brix
acetic acid in fermentation media ([2]; tube Z2, nisin Z 0.34 μg/g): 8.273 %/brix
Maltotriose in fermentation media ([2]; tube Z4, nisin Z 1.58 μg/g): 0.265 %/brix
ethanol in fermentation media ([2]; tube Z4, nisin Z 1.58 μg/g): 0.083 %/brix
formic acid in fermentation media ([2]; tube Z4, nisin Z 1.58 μg/g): 0.309 %/brix
fructose in fermentation media ([2]; tube Z4, nisin Z 1.58 μg/g): 0.000 %/brix
glucose in fermentation media ([2]; tube Z4, nisin Z 1.58 μg/g): 24.153 %/brix
glycerol in fermentation media ([2]; tube Z4, nisin Z 1.58 μg/g): 0.337 %/brix
lactic acid in fermentation media ([2]; tube Z4, nisin Z 1.58 μg/g): 5.081 %/brix
maltose in fermentation media ([2]; tube Z4, nisin Z 1.58 μg/g): 1.007 %/brix
acetic acid in fermentation media ([2]; tube Z4, nisin Z 1.58 μg/g): 8.247 %/brix
Maltotriose in fermentation media ([2]; tube Z5, nisin Z 3.19 μg/g): 0.311 %/brix
ethanol in fermentation media ([2]; tube Z5, nisin Z 3.19 μg/g): 0.067 %/brix
formic acid in fermentation media ([2]; tube Z5, nisin Z 3.19 μg/g): 0.281 %/brix
fructose in fermentation media ([2]; tube Z5, nisin Z 3.19 μg/g): 0.000 %/brix
glucose in fermentation media ([2]; tube Z5, nisin Z 3.19 μg/g): 24.698 %/brix
glycerol in fermentation media ([2]; tube Z5, nisin Z 3.19 μg/g): 0.321 %/brix
lactic acid in fermentation media ([2]; tube Z5, nisin Z 3.19 μg/g): 2.995 %/brix
maltose in fermentation media ([2]; tube Z5, nisin Z 3.19 μg/g): 0.750 %/brix
acetic acid in fermentation media ([2]; tube Z5, nisin Z 3.19 μg/g): 8.026 %/brix
Maltotriose in fermentation media ([2]; tube Z6, nisin Z 6.31 μg/g): 0.247 %/brix
ethanol in fermentation media ([2]; tube Z6, nisin Z 6.31 μg/g): 0.059 %/brix
formic acid in fermentation media ([2]; tube Z6, nisin Z 6.31 μg/g): 0.267 %/brix
fructose in fermentation media ([2]; tube Z6, nisin Z 6.31 μg/g): 0.000 %/brix
glucose in fermentation media ([2]; tube Z6, nisin Z 6.31 μg/g): 25.353 %/brix
glycerol in fermentation media ([2]; tube Z6, nisin Z 6.31 μg/g): 0.320 %/brix
lactic acid in fermentation media ([2]; tube Z6, nisin Z 6.31 μg/g): 1.351 %/brix
maltose in fermentation media ([2]; tube Z6, nisin Z 6.31 μg/g): 0.726 %/brix
acetic acid in fermentation media ([2]; tube Z6, nisin Z 6.31 μg/g): 7.969 %/brix
Maltotriose in fermentation media ([2]; tube Z7, nisin Z 9.54 μg/g): 0.291 %/brix
ethanol in fermentation media ([2]; tube Z7, nisin Z 9.54 μg/g): 0.065 %/brix
formic acid in fermentation media ([2]; tube Z7, nisin Z 9.54 μg/g): 0.263 %/brix
fructose in fermentation media ([2]; tube Z7, nisin Z 9.54 μg/g): 0.000 %/brix
glucose in fermentation media ([2]; tube Z7, nisin Z 9.54 μg/g): 25.501 %/brix
glycerol in fermentation media ([2]; tube Z7, nisin Z 9.54 μg/g): 0.335 %/brix
lactic acid in fermentation media ([2]; tube Z7, nisin Z 9.54 μg/g): 1.431 %/brix
maltose in fermentation media ([2]; tube Z7, nisin Z 9.54 μg/g): 0.895 %/brix
acetic acid in fermentation media ([2]; tube Z7, nisin Z 9.54 μg/g): 8.026 %/brix
Maltotriose in fermentation media ([2]; tube Z8, nisin Z 12.61 μg/g): 0.318 %/brix
ethanol in fermentation media ([2]; tube Z8, nisin Z 12.61 μg/g): 0.148 %/brix
formic acid in fermentation media ([2]; tube Z8, nisin Z 12.61 μg/g): 0.299 %/brix
fructose in fermentation media ([2]; tube Z8, nisin Z 12.61 μg/g): 0.000 %/brix
glucose in fermentation media ([2]; tube Z8, nisin Z 12.61 μg/g): 25.740 %/brix
glycerol in fermentation media ([2]; tube Z8, nisin Z 12.61 μg/g): 0.346 %/brix
lactic acid in fermentation media ([2]; tube Z8, nisin Z 12.61 μg/g): 1.652 %/brix
maltose in fermentation media ([2]; tube Z8, nisin Z 12.61 μg/g): 0.876 %/brix
acetic acid in fermentation media ([2]; tube Z8, nisin Z 12.61 μg/g): 8.261 %/brix
effect on tumors (in words) (head/neck tumors): can reduce tumorigenesis in mice
